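Each compound was tested at five concentrations against cells in 96-well plates for 48 hours. The concentration for full growth arrest is given as TGI.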
Experiments:
Assay in all cases: growth of human tumour cells (NCI), 48 h
786-0 renal = test system: 786-0 renal
A498 renal = test system: A498 renal
A549 NSCLC = test system: A549 NSCLC
ACHN renal = test system: ACHN renal
BT-549 breast = test system: BT-549 breast
CAKI-1 renal = test system: CAKI-1 renal
CCRF-CEM leukemia = test system: CCRF-CEM leukemia
COLO 205 colon = test system: COLO 205 colon
DU-145 prostate = test system: DU-145 prostate
EKVX NSCLC = test system: EKVX NSCLC
HCC-2998 colon = test system: HCC-2998 colon
HCT-116 colon = test system: HCT-116 colon
HCT-15 colon = test system: HCT-15 colon
HL-60(TB) leukemia = test system: HL-60(TB) leukemia
HOP-62 NSCLC = test system: HOP-62 NSCLC
HOP-92 NSCLC = test system: HOP-92 NSCLC
HS 578T breast = test system: HS 578T breast
HT29 colon = test system: HT29 colon
IGROV1 ovarian = test system: IGROV1 ovarian
K-562 leukemia = test system: K-562 leukemia
KM12 colon = test system: KM12 colon
LOX IMVI melanoma = test system: LOX IMVI melanoma
M14 melanoma = test system: M14 melanoma
MALME-3M melanoma = test system: MALME-3M melanoma
MCF7 breast = test system: MCF7 breast
MDA-MB-231 breast = test system: MDA-MB-231 breast
MDA-MB-435 = test system: MDA-MB-435
MDA-N = test system: MDA-N
MOLT-4 leukemia = test system: MOLT-4 leukemia
NCI-H226 lung = test system: NCI-H226 lung
NCI-H23 lung = test system: NCI-H23 lung
NCI-H460 lung = test system: NCI-H460 lung
NCI-H522 lung = test system: NCI-H522 lung
NCI/ADR-RES ovarian = test system: NCI/ADR-RES ovarian
OVCAR-3 ovarian = test system: OVCAR-3 ovarian
OVCAR-4 ovarian = test system: OVCAR-4 ovarian
OVCAR-5 ovarian = test system: OVCAR-5 ovarian
OVCAR-8 ovarian = test system: OVCAR-8 ovarian
PC-3 prostate = test system: PC-3 prostate
RPMI-8226 leukemia = test system: RPMI-8226 leukemia
RXF 393 renal = test system: RXF 393 renal
SF-268 CNS = test system: SF-268 CNS
SF-295 CNS = test system: SF-295 CNS
SF-539 CNS = test system: SF-539 CNS
SK-MEL-2 melanoma = test system: SK-MEL-2 melanoma
SK-MEL-28 melanoma = test system: SK-MEL-28 melanoma
SK-MEL-5 melanoma = test system: SK-MEL-5 melanoma
SK-OV-3 ovarian = test system: SK-OV-3 ovarian
SN12C renal = test system: SN12C renal
SNB-19 CNS = test system: SNB-19 CNS
SR leukemia = test system: SR leukemia
SW-620 colon = test system: SW-620 colon
T-47D breast = test system: T-47D breast
TK-10 renal = test system: TK-10 renal
U251 CNS = test system: U251 CNS
UACC-257 melanoma = test system: UACC-257 melanoma
UACC-62 melanoma = test system: UACC-62 melanoma
UO-31 renal = test system: UO-31 renal
SNB-75 CNS = test system: SNB-75 CNS

## CCCCCCc1nn2c(-c3ccncc3)nnc2s1
786-0 renal
  TGI: > 10 µM
A498 renal
  TGI: > 10 µM
A549 NSCLC
  TGI: > 10 µM
ACHN renal
  TGI: > 10 µM
BT-549 breast
  TGI: > 10 µM
CAKI-1 renal
  TGI: > 10 µM
CCRF-CEM leukemia
  TGI: > 10 µM
COLO 205 colon
  TGI: > 10 µM
DU-145 prostate
  TGI: > 10 µM
EKVX NSCLC
  TGI: > 10 µM
HCC-2998 colon
  TGI: > 10 µM
HCT-116 colon
  TGI: > 10 µM
HCT-15 colon
  TGI: > 10 µM
HL-60(TB) leukemia
  TGI: > 10 µM
HOP-62 NSCLC
  TGI: > 10 µM
HOP-92 NSCLC
  TGI: > 10 µM
HS 578T breast
  TGI: > 10 µM
HT29 colon
  TGI: > 10 µM
IGROV1 ovarian
  TGI: > 10 µM
K-562 leukemia
  TGI: > 10 µM
KM12 colon
  TGI: > 10 µM
LOX IMVI melanoma
  TGI: > 10 µM
M14 melanoma
  TGI: > 10 µM
MALME-3M melanoma
  TGI: > 10 µM
MCF7 breast
  TGI: > 10 µM
MDA-MB-231 breast
  TGI: > 10 µM
MDA-MB-435
  TGI: > 10 µM
MDA-N
  TGI: > 10 µM
MOLT-4 leukemia
  TGI: > 10 µM
NCI-H226 lung
  TGI: > 10 µM
NCI-H23 lung
  TGI: > 10 µM
NCI-H460 lung
  TGI: > 10 µM
NCI-H522 lung
  TGI: > 10 µM
NCI/ADR-RES ovarian
  TGI: > 10 µM
OVCAR-3 ovarian
  TGI: > 10 µM
OVCAR-4 ovarian
  TGI: > 10 µM
OVCAR-5 ovarian
  TGI: > 10 µM
OVCAR-8 ovarian
  TGI: > 10 µM
PC-3 prostate
  TGI: > 10 µM
RPMI-8226 leukemia
  TGI: > 10 µM
RXF 393 renal
  TGI: > 10 µM
SF-268 CNS
  TGI: > 10 µM
SF-295 CNS
  TGI: > 10 µM
SF-539 CNS
  TGI: > 10 µM
SK-MEL-2 melanoma
  TGI: > 10 µM
SK-MEL-28 melanoma
  TGI: > 10 µM
SK-MEL-5 melanoma
  TGI: > 10 µM
SK-OV-3 ovarian
  TGI: > 10 µM
SN12C renal
  TGI: > 10 µM
SNB-19 CNS
  TGI: > 10 µM
SR leukemia
  TGI: > 10 µM
SW-620 colon
  TGI: > 10 µM
T-47D breast
  TGI: > 10 µM
TK-10 renal
  TGI: > 10 µM
U251 CNS
  TGI: > 10 µM
UACC-257 melanoma
  TGI: > 10 µM
UACC-62 melanoma
  TGI: > 10 µM
UO-31 renal
  TGI: 2.89 µM

## N=C(N)SCCc1ccncc1
786-0 renal
  TGI: > 100 µM
A498 renal
  TGI: > 100 µM
A549 NSCLC
  TGI: > 100 µM
ACHN renal
  TGI: > 100 µM
BT-549 breast
  TGI: > 100 µM
CAKI-1 renal
  TGI: > 100 µM
CCRF-CEM leukemia
  TGI: > 100 µM
COLO 205 colon
  TGI: > 100 µM
DU-145 prostate
  TGI: > 100 µM
EKVX NSCLC
  TGI: > 100 µM
HCT-116 colon
  TGI: > 100 µM
HCT-15 colon
  TGI: > 100 µM
HL-60(TB) leukemia
  TGI: > 100 µM
HOP-62 NSCLC
  TGI: > 100 µM
HOP-92 NSCLC
  TGI: > 100 µM
HS 578T breast
  TGI: > 100 µM
HT29 colon
  TGI: > 100 µM
IGROV1 ovarian
  TGI: > 100 µM
K-562 leukemia
  TGI: > 100 µM
KM12 colon
  TGI: > 100 µM
LOX IMVI melanoma
  TGI: > 100 µM
M14 melanoma
  TGI: > 100 µM
MCF7 breast
  TGI: > 100 µM
MDA-MB-231 breast
  TGI: > 100 µM
MDA-MB-435
  TGI: > 100 µM
MDA-N
  TGI: > 100 µM
MOLT-4 leukemia
  TGI: > 100 µM
NCI-H226 lung
  TGI: > 100 µM
NCI-H23 lung
  TGI: > 100 µM
NCI-H460 lung
  TGI: > 100 µM
NCI/ADR-RES ovarian
  TGI: > 100 µM
OVCAR-3 ovarian
  TGI: > 100 µM
OVCAR-4 ovarian
  TGI: > 100 µM
OVCAR-5 ovarian
  TGI: > 100 µM
OVCAR-8 ovarian
  TGI: > 100 µM
PC-3 prostate
  TGI: > 100 µM
RPMI-8226 leukemia
  TGI: > 100 µM
RXF 393 renal
  TGI: > 100 µM
SF-268 CNS
  TGI: > 100 µM
SF-295 CNS
  TGI: > 100 µM
SF-539 CNS
  TGI: > 100 µM
SK-MEL-2 melanoma
  TGI: > 100 µM
SK-MEL-28 melanoma
  TGI: > 100 µM
SK-MEL-5 melanoma
  TGI: > 100 µM
SK-OV-3 ovarian
  TGI: > 100 µM
SN12C renal
  TGI: > 100 µM
SNB-19 CNS
  TGI: > 100 µM
SNB-75 CNS
  TGI: > 100 µM
SR leukemia
  TGI: > 100 µM
SW-620 colon
  TGI: > 100 µM
T-47D breast
  TGI: > 100 µM
TK-10 renal
  TGI: > 100 µM
U251 CNS
  TGI: > 100 µM
UACC-257 melanoma
  TGI: > 100 µM
UACC-62 melanoma
  TGI: > 100 µM
UO-31 renal
  TGI: > 100 µM
